According to US9949995B2, “Compositions and methods of treating of bacterial infections with β-lactamase inhibitors” (priority 2015, dated 2018):

Assays:
[1] = molecular target: ADC-7 (Acinetobacter baumannii, UniProt Q6DRA1); assay: IC50 assay, nitrocefin hydrolysis, ADC-7 (SBL); assay type: biochemical; details: nitrocefin 50 μM, 5 min pre-incubation at 25° C.; 10 mM phosphate-buffered saline, pH 7.4
Method: (§1) IC50 assays were performed to determine compound ability to inhibit enzyme.

[2] = molecular target: NDM-1 (Klebsiella pneumoniae, UniProt C7C422); assay: IC50 assay, nitrocefin hydrolysis, NDM-1 (MBL); assay type: biochemical; details: nitrocefin 50 μM, 5 min pre-incubation at 25° C.; 10 mM HEPES pH 7.5, 200 mM NaCl, 50 uM Zn2SO4, 50 ug/ml BSA
Method: as §1

[3] = molecular target: PDC-3 (Pseudomonas aeruginosa, UniProt P24735, T105A); assay: IC50 assay, nitrocefin hydrolysis, PDC-3 (SBL); assay type: biochemical
Method: as §1

[4] = molecular target: KPC-2 (Klebsiella pneumoniae, UniProt Q9F663); assay: IC50 assay, nitrocefin hydrolysis, KPC-2 (SBL); assay type: biochemical; details: nitrocefin 50 μM, 5 min pre-incubation at 25° C.; 10 mM phosphate-buffered saline, pH 7.4
Method: as §1

[5] = molecular target: OXA-23 (Acinetobacter baumannii, UniProt Q9L4P2); assay: IC50 assay, nitrocefin hydrolysis, OXA-23 (SBL); assay type: biochemical; details: nitrocefin 50 μM, 5 min pre-incubation at 25° C.; 50 mM Na Phosphate buffer, pH 7.2, 20 mM Na bicarbonate
Method: as §1

[6] = molecular target: VIM-2 (Escherichia coli, UniProt Q5U7L7); assay: IC50 assay, nitrocefin hydrolysis, VIM-2 (MBL); assay type: biochemical; details: nitrocefin 50 μM, 5 min pre-incubation at 25° C.; 10 mM HEPES pH 7.5, 200 mM NaCl, 50 uM Zn2SO4, 50 ug/ml BSA
Method: as §1

[7] = molecular target: VIM-24 (Escherichia coli, UniProt Q5U7L7, R205L); assay: IC50 assay, nitrocefin hydrolysis, VIM-24 (MBL); assay type: biochemical
Method: as §1

[8] = molecular target: IMP-1 (Serratia marcescens, UniProt P52699); assay: IC50 assay, nitrocefin hydrolysis, IMP-1 (MBL); assay type: biochemical; details: nitrocefin 50 μM, 5 min pre-incubation at 25° C.; 10 mM HEPES pH 7.5, 200 mM NaCl, 50 uM Zn2SO4, 50 ug/ml BSA
Method: as §1

Chain of IMP-1 (P52699 19-246, looked up): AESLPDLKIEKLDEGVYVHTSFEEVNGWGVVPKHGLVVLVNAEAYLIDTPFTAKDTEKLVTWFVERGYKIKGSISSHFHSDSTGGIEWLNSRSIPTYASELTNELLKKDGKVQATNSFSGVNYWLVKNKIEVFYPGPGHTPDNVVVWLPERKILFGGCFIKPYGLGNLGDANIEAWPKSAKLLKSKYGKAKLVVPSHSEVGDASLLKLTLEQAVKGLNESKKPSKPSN
Chain of PDC-3 (P24735 27-397 T105A): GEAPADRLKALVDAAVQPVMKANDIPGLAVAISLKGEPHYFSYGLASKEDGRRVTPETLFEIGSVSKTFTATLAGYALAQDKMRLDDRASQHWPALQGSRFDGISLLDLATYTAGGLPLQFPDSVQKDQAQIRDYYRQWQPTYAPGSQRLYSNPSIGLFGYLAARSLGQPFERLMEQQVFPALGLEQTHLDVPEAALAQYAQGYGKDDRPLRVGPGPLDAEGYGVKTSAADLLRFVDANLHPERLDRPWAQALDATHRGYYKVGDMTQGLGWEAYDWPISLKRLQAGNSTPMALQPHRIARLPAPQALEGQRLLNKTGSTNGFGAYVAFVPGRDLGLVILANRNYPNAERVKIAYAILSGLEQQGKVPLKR
Chain of OXA-23 (Q9L4P2 18-273): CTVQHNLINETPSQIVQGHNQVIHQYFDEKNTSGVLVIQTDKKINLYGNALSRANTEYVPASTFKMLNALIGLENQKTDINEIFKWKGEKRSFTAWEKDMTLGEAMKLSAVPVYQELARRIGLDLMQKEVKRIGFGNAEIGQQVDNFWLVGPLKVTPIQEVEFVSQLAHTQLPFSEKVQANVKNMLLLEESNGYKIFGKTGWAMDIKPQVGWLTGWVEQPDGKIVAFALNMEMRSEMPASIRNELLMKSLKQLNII
Chain of NDM-1 (C7C422 29-270, looked up): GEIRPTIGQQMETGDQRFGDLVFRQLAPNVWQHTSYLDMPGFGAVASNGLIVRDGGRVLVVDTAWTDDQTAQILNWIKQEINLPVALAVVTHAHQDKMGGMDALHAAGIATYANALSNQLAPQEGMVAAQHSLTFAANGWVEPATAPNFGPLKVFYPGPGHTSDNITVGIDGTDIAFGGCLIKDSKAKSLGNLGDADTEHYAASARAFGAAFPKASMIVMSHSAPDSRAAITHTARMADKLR
Chain of KPC-2 (Q9F663 25-293, looked up): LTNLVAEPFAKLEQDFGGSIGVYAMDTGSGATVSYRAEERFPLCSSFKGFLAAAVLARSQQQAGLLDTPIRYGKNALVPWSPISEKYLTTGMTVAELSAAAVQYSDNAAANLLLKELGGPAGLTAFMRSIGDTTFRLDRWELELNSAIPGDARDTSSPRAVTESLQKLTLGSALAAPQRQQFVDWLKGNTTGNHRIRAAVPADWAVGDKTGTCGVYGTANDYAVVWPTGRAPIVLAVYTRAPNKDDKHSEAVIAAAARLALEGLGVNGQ

O=C(O)c1cn([C@@H](Cc2ccccc2)B(O)O)nn1
melting point: 120 to 122 °C (dec.)

OB(O)[C@H](Cc1ccccc1)n1cc(-c2ccccc2)nn1
melting point: 151 to 153 °C (dec.)

OB(O)[C@H](Cc1ccccc1)n1cc(-c2ccsc2)nn1
melting point: 141 to 143 °C (dec.)

OB(O)[C@H](Cc1ccccc1)n1cc(COc2ccccc2)nn1
melting point: 113 to 115 °C (dec.)

CCOC(=O)c1cn([C@@H](Cc2cccc(C(=O)O)c2)B(O)O)nn1
melting point: 108 to 110 °C (dec.)

O=C(O)c1cccc(C[C@@H](B(O)O)n2cc(-c3ccccc3)nn2)c1
melting point: 88 to 90 °C (dec.)

O=C(O)c1cccc(C[C@@H](B(O)O)n2cc(-c3ccsc3)nn2)c1
melting point: 185 to 187 °C (dec.)

CCOC(=O)c1cn(CB(O)O)nn1
melting point: 123 to 125 °C (dec.)

OB(O)Cn1cc(-c2ccccc2)nn1
melting point: 122 to 124 °C (dec.)

OB(O)Cn1cc(-c2ccsc2)nn1
melting point: 170 to 172 °C (dec.)

OB(O)Cn1cc(COc2ccccc2)nn1
melting point: 128 to 131 °C (dec.)

Cc1ccc(S(=O)(=O)NCc2cn(CB(O)O)nn2)cc1 [Cmp 1a]
IC50 [1]: 24 ± 3 µM
IC50 [2]: > 100 µM
IC50 [3]: 9 ± 1 µM
IC50 [4]: 1.3 ± 0.1 µM
IC50 [5]: > 100 µM
IC50 [6]: > 100 µM
IC50 [7]: > 100 µM
IC50 [8]: > 100 µM

O=C(NCc1cn(CB(O)O)nn1)c1ccccc1 [Cmp 1c]
IC50 [1]: 23 ± 3 µM
IC50 [2]: > 100 µM
IC50 [3]: 26 ± 3 µM
IC50 [4]: 10.8 ± 1.5 µM
IC50 [5]: > 100 µM
IC50 [6]: 55 ± 5 µM
IC50 [7]: > 100 µM
IC50 [8]: > 100 µM

O=C(Cc1ccccc1)NCc1cn(CB(O)O)nn1 [Cmp 1d]
IC50 [1]: 39 ± 4 µM
IC50 [2]: > 100 µM
IC50 [3]: 23 ± 3 µM
IC50 [4]: 12 ± 1 µM
IC50 [5]: > 100 µM
IC50 [6]: 92 ± 9 µM
IC50 [7]: > 100 µM
IC50 [8]: > 100 µM

O=C(NCc1cn(CB(O)O)nn1)Nc1ccccc1 [Cmp 1e]
IC50 [1]: 14 ± 2 µM
IC50 [2]: > 100 µM
IC50 [3]: 10 ± 1 µM
IC50 [4]: 5.2 ± 0.2 µM
IC50 [5]: > 100 µM
IC50 [6]: 39 ± 4 µM
IC50 [7]: > 100 µM
IC50 [8]: > 100 µM
